These results are taken from US6180621A, “Method and treatment using 1-methylcarbapenem derivatives as an anti-helicobacter pylori agent” (Sankyo Company, Limited, priority 1996, dated 2001).

In brackets after ≈: the same amount, converted by molar mass. Where two headings read alike, the source gives them in different places.

The subject of assay [1] is helicobacter pylori. The assay can be described thus: In vitro activity against helicobacter pylori (MIC), agar plate. The assay is classed as cell-based. The settings on record: for MIC: Helicobacter pylori, 72 h, read-out: minimum inhibitory concentration (MIC). How it is done: In vitro activity against helicobacter pylon (MIC; μg/ml)
Helicobacter pylori (H. pylori) from storage was smeared on a 7%-equine-defibrinated-blood-added brain heart infusion agar (BHIA) plate and cultured at 37° C. for 72 hours under microaerophilic and wet conditions. The colonies thus grown were picked and suspended in physiological saline to prepare a culture solution of 10^8 CFU/ml (viable microbe cell number per ml). The resulting culture solution was diluted to 10 to 50-fold with physiological saline, and one spot (about 10 μl) of the solution was inoculated on each of medicament-containing and medicament-free BHIA plates. Each of the plates was cultured at 37° C. for 72 hours under microaerophilic and wet conditions and the minimum inhibitory concentration (MIC: μg/ml) at which the growth of the colonies was inhibited was measured.

In assay [2] the test system is helicobacter pylori 9470 strain. The assay can be described thus: Therapeutic effects for nude mouse infected with helicobacter pylori (viable microbe cell number, CFU/stomach). To be noted: oral, once a day for 4 days, nude mice. The assay is classed as in vivo. On the procedure: Therapeutic effects for nude mouse infected with helicobacter pylon Bacteria (helicobacter pylori 9470 strain) used for the test, which were cultured for 48 hours in a 2%-fetal-calf-serum-added brucella broth, were centrifuged. After removal of the supernatant, the residue was re-suspended in a 1/10 amount of a brucella broth. The resulting suspended solution was orally administered to each of three to five nude mice in an amount of […] per mouse. 10 days after the infection, administration of a medicament was started. A 0.5% tragacanth suspension of a medicament was orally administered for 4 days through an oral catheter at a dose of 0.3 ml/mouse, once a day. On the day after the final administration, the stomach was extirpated, homogenized and then diluted. […] The significant difference of Medicament B(2), Medicament C(1) or C(2) is p<0.01 (vs the control group).

The subject of assay [3] is helicobacter pylori. The settings on record: background, reported; cited from earlier work.
The mark [4] stands for this setting: H. pylori strain 9470, 37° C., 72 hours, microaerophilic, BHIA plate.
The mark [5] stands for this setting: H. pylori strain 9472, 37° C., 72 hours, microaerophilic, BHIA plate.
Where [6] appears, read: H. pylori strain 9474, 37° C., 72 hours, microaerophilic, BHIA plate.
Setting [7] is: H. pylori strain 9824, 37° C., 72 hours, microaerophilic, BHIA plate.
Setting [8] is: H. pylori strain 9828, 37° C., 72 hours, microaerophilic, BHIA plate.

In the case of `CC[C@H]1OC(=O)[C@H](C)[C@@H](O[C@H]2C[C@@](C)(OC)[C@@H](O)[C@H](C)O2)[C@H](C)[C@@H](O[C@@H]2O[C@H](C)C[C@H](N(C)C)[C@H]2O)[C@](C)(OC)C[C@@H](C)C(=O)[C@H](C)[C@@H](O)[C@]1(C)O` [CAM, clarithromycin], the MIC in assay [1] (setting [4]) worked out at 6 ng/mL (≈ 0.00802 µM); in assay [1] (setting [5]), 6 ng/mL (≈ 0.00802 µM); in assay [1] (setting [6]), 25 ng/mL (≈ 0.0334 µM); in assay [1] (setting [7]), 1500 ng/mL (≈ 2.01 µM); in assay [1] (setting [8]), 6250 ng/mL (≈ 8.36 µM). Further, in assay [2] (10 mg/kg), the “significant difference (p) vs the control group, viable microbe cell number (CFU/stomach)” value is on record as less than 0.01. Further, the “effect against helicobacter pylori” value in assay [3] is on record as “effective against helicobacter pylori”.

Take `C[C@@H](O)[C@H]1C(=O)N2C(C(=O)[O-])=C(S[C@H]3CNC(=O)C3)[C@H](C)[C@H]12.[Na+]` [Compound 1, sodium (1R,5S,6S)-2-[(4R)-2-oxo-4pyrrolidinylthio]-6-[(1R)-1-hydroxyethyl]-1-methyl-1-carbapen-2-em-3-carboxylate]: the “minimum inhibitory concentration (MIC)” value in assay [1] (setting [5]), in assay [1] (setting [6]), in assay [1] (setting [7]) and in assay [1] (setting [8]) was no more than 6 ng/mL in each case. Moreover, in assay [1], the MIC was no more than 6 ng/mL.

In the case of `C[C@@H](O)[C@H]1C(=O)N2C(C(=O)O)=C(S[C@@H]3CC(=O)N(C)C3)[C@H](C)[C@H]12` [Compound 2], the MIC was no more than 0.6 ng/mL in assay [1] (setting [4]), no more than 6 ng/mL in assay [1] (setting [5]), no more than 6 ng/mL in assay [1] (setting [7]) and no more than 6 ng/mL in assay [1] (setting [8]).

For the molecule `C[C@@H](O)[C@H]1C(=O)N2C(C(=O)[O-])=C(S[C@H]3CC(=O)N(C)C3)[C@H](C)[C@H]12.[Na+]` [Compound 3, sodium (1R,5S,6S)-2-[(4S)-1-methyl-2-oxo-4-pyrrolidinylthio]-6-[(1R)-1-hydroxyethyl]-1-methyl-1-carbapen-2-em-3-carboxylate], the “minimum inhibitory concentration (MIC)” value in assay [1] (setting [5]), in assay [1] (setting [7]) and in assay [1] (setting [8]) was no more than 6 ng/mL each time. In addition, in assay [1], the MIC is no more than 6 ng/mL.

Regarding `Cc1ncc([N+](=O)[O-])n1CCO` [metronidazole], the “effect against helicobacter pylori” value in assay [3] is listed as “effective against helicobacter pylori”.

Turning to `O=C([O-])CC(O)(CC(=O)[O-])C(=O)[O-].[Bi+3]` [bismuth citrate], the “effect against helicobacter pylori” value in assay [3] is listed as “effective against helicobacter pylori”.

Consider `CC1(C)S[C@@H]2[C@H](NC(=O)[C@H](N)c3ccc(O)cc3)C(=O)N2[C@H]1C(=O)O` [AMPC, amoxicillin], for which the MIC in assay [1] (setting [4]) was determined as 12 ng/mL (≈ 0.0328 µM); in assay [1] (setting [5]), 25 ng/mL (≈ 0.0684 µM); in assay [1] (setting [6]), 50 ng/mL (≈ 0.137 µM); in assay [1] (setting [7]), 390 ng/mL (≈ 1.07 µM); in assay [1] (setting [8]), 200 ng/mL (≈ 0.547 µM). The “effect against helicobacter pylori” value in assay [3] is recorded as “effective against helicobacter pylori”.

As to `C[C@@H](O)[C@H]1C(=O)N2C(C(=O)OCOC(=O)C(C)(C)C)=C(S[C@H]3CNC(=O)C3)[C@H](C)[C@H]12` [Compound 4, pivaloyloxymethyl (1R,5S,6S)-2-[(4R)-2-oxo-4-pyrrolidinylthio]-6-[(1R)-1-hydroxyethyl]-1-methyl-1-carbapen-2-em-3-carboxylate], the “significant difference (p) vs the control group, viable microbe cell number (CFU/stomach)” value in assay [2] (1 mg/kg) and in assay [2] (10 mg/kg) was less than 0.01 each time.

With `CN(C)C1C(=O)C(C(N)=O)=C(O)C2(O)C(=O)C3=C(O)c4c(O)cccc4C(C)(O)C3CC12` (stereo not shown) [tetracycline], the “effect against helicobacter pylori” value in assay [3] is “effective against helicobacter pylori”.
